Test results from US20260116867A1, “PROTEOLYSIS TARGETING CHIMERAS FOR HUMAN PREGNANE X RECEPTOR AND FOR DEGRADATION OF GSPT1” (ST. JUDE CHILDREN'S RESEARCH HOSPITAL, priority 2022, published 2026).

What was measured:
PXR [1] = target: T1, PXR (Homo sapiens, UniProt O75469); assay: hPXR binding assay; conditions: for inhibition at 10 µM: read-out: Binding (% inhibition at 10 μM)
T1 sequence (O75469 1-434): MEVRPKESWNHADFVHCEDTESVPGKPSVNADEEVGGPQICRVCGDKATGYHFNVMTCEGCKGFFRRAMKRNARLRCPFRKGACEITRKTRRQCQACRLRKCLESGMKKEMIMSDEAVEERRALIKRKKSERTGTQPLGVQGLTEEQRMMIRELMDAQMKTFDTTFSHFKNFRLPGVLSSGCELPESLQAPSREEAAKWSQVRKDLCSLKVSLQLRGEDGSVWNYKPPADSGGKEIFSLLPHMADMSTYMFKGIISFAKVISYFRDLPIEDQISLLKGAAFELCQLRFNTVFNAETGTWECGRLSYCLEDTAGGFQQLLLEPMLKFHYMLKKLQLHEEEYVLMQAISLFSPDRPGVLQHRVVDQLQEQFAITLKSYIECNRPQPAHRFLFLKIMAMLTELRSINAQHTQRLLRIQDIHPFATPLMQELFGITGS

PXR [2] = target: T1, PXR; assay: cell-based hPXR inverse agonistic assay; conditions: for inhibition at 10 µM: read-out: Inverse agonist (% inhibition at 10 μM); for IC50: read-out: Inverse agonist (IC50/μM)
PXR [3] = target: T1, PXR; assay: cell-based hPXR antagonistic assay; conditions: for inhibition at 10 µM: read-out: Antagonist (% inhibition at 10 μM); for IC50: read-out: Antagonist (IC50/μM)

| Structure (SMILES) | IC50 (PXR [1]) | inhibition at 10 µM (PXR [1]) | inhibition at 10 µM (PXR [2]) | IC50 (PXR [2]) | inhibition at 10 µM (PXR [3]) | IC50 (PXR [3]) |
| --- | --- | --- | --- | --- | --- | --- |
| COc1ccc(OC)c(-n2nnc(C(=O)Nc3cc(OCCCCNc4cccc5c4CN(C4CCC(=O)NC4=O)C5=O)cc(C(C)(C)C)c3)c2C)c1 (centres unmarked) [Compound M14, N-(3-(tert-butyl)-5-(4-((2-(2,6-dioxopiperidin-3-yl)-1-oxoisoindolin-4-yl)amino)butoxy)phenyl)-1-(2,5-dimethoxyphenyl)-5-methyl-1H-1,2,3-triazole-4-carboxamide] | 0.13 ± 0.051 µM | 22% | 94% | 0.43 ± 0.14 µM | 82% | 1.86 ± 0.53 µM |
| COc1ccc(OC)c(-n2nnc(C(=O)Nc3cc(OCCCCCCCCOc4cccc5c4C(=O)N(C4CCC(=O)NC4=O)C5=O)cc(C(C)(C)C)c3)c2C)c1 (centres unmarked) [Compound M16, N-(3-(tert-butyl)-5-((8-((2-(2,6-dioxopiperidin-3-yl)-1,3-dioxoisoindolin-4-yl)oxy)octyl)oxy)phenyl)-1-(2,5-dimethoxyphenyl)-5-methyl-1H-1,2,3-triazole-4-carboxamide] | – | – | – | – | 57% | 2.02 ± 0.47 µM |
| COc1ccc(OC)c(-n2nnc(C(=O)Nc3cc(OCCCCN4C(=O)CCC(N5Cc6c(N)cccc6C5=O)C4=O)cc(C(C)(C)C)c3)c2C)c1 (centres unmarked) [Compound N4, N-(3-(4-(3-(4-amino-1-oxoisoindolin-2-yl)-2,6-dioxopiperidin-1-yl)butoxy)-5-(tert-butyl)phenyl)-1-(2,5-dimethoxyphenyl)-5-methyl-1H-1,2,3-triazole-4-carboxamide] | 0.087 ± 0.022 µM | 37% | 97% | 0.044 ± 0.008 µM | 103% | 0.17 ± 0.0045 µM |
| COc1ccc(OC)c(-n2nnc(C(=O)Oc3cccc4c3C(=O)N(C3CCC(=O)NC3=O)C4=O)c2C)c1 (centres unmarked) [Compound M2, 2-(2,6-dioxopiperidin-3-yl)-1,3-dioxoisoindolin-4-yl 1-(2,5-dimethoxyphenyl)-5-methyl-1H-1,2,3-triazole-4-carboxylate] | 2.69 ± 1.33 µM | 46% | – | – | – | – |
| COc1ccc(OC)c(-n2nnc(C(=O)Nc3cc(C(C)(C)C)ccc3OCCCCCCCCOc3cccc4c3C(=O)N(C3CCC(=O)NC3=O)C4=O)c2C)c1 (centres unmarked) [Compound M19, N-(5-(tert-butyl)-2-((8-((2-(2,6-dioxopiperidin-3-yl)-1,3-dioxoisoindolin-4-yl)oxy)octyl)oxy)phenyl)-1-(2,5-dimethoxyphenyl)-5-methyl-1H-1,2,3-triazole-4-carboxamide] | – | – | – | – | 30% | 2.52 ± 1.38 µM |
| COc1ccc(OC)c(-n2nnc(C(=O)Nc3cc(C(C)(C)C)ccc3OCCOCCOCCOCCOCCOCCOc3cccc4c3C(=O)N(C3CCC(=O)NC3=O)C4=O)c2C)c1 (centres unmarked) [Compound M20, N-(5-(tert-butyl)-2-((17-((2-(2,6-dioxopiperidin-3-yl)-1,3-dioxoisoindolin-4-yl)oxy)-3,6,9,12,15-pentaoxaheptadecyl)oxy)phenyl)-1-(2,5-dimethoxyphenyl)-5-methyl-1H-1,2,3-triazole-4-carboxamide] | 4.9 ± 0.8 µM | 64% | – | – | 58% | 6.33 ± 0.74 µM |
| COc1ccc(OC)c(-n2nnc(C(=O)Nc3cc(C(C)(C)C)ccc3OCCCCNc3cccc4c3CN(C3CCC(=O)NC3=O)C4=O)c2C)c1 (centres unmarked) [Compound M13, N-(5-(tert-butyl)-2-(4-((2-(2,6-dioxopiperidin-3-yl)-1-oxoisoindolin-4-yl)amino)butoxy)phenyl)-1-(2,5-dimethoxyphenyl)-5-methyl-1H-1,2,3-triazole-4-carboxamide] | – | – | – | – | 40% | 41 ± 5.3 µM |
| COc1ccc(OC)c(-n2nnc(C(=O)Nc3cc(Nc4cccc5c4C(=O)N(C4CCC(=O)NC4=O)C5=O)cc(C(C)(C)C)c3)c2C)c1 (centres unmarked) [Compound M5, N-(3-(tert-butyl)-5-((2-(2,6-dioxopiperidin-3-yl)-1,3-dioxoisoindolin-4-yl)amino)phenyl)-1-(2,5-dimethoxyphenyl)-5-methyl-1H-1,2,3-triazole-4-carboxamide] | 0.083 ± 0.0041 µM | 69% | 141% | 0.0078 ± 0.002 µM | 107% | 0.052 ± 0.0066 µM |
| COc1ccc(OC)c(-n2nnc(C(=O)Nc3cc(NC(=O)COCCOCCOCCOCCNc4cccc5c4C(=O)N(C4CCC(=O)NC4=O)C5=O)cc(C(C)(C)C)c3)c2C)c1 (centres unmarked) [Compound M17, N-(3-(tert-butyl)-5-(14-((2-(2,6-dioxopiperidin-3-yl)-1,3-dioxoisoindolin-4-yl)amino)-3,6,9,12-tetraoxatetradecanamido)phenyl)-1-(2,5-dimethoxyphenyl)-5-methyl-1H-1,2,3-triazole-4-carboxamide] | – | – | 84% | 1.98 ± 0.25 µM | 70% | – |
| COc1ccc(OC)c(-n2nnc(C(=O)Nc3cc(NC(=O)CCCNC(=O)COc4cccc5c4C(=O)N(C4CCC(=O)NC4=O)C5=O)cc(C(C)(C)C)c3)c2C)c1 (centres unmarked) [Compound M15, N-(3-(tert-butyl)-5-(4-(2-((2-(2,6-dioxopiperidin-3-yl)-1,3-dioxoisoindolin-4-yl)oxy)acetamido)butanamido)phenyl)-1-(2,5-dimethoxyphenyl)-5-methyl-1H-1,2,3-triazole-4-carboxamide] | 2.19 ± 1.35 µM | 30% | – | – | – | – |

Next, values leading:

| IC50 (PXR [1]) | inhibition at 10 µM (PXR [1]) | inhibition at 10 µM (PXR [2]) | IC50 (PXR [2]) | inhibition at 10 µM (PXR [3]) | IC50 (PXR [3]) | Structure (SMILES) |
| --- | --- | --- | --- | --- | --- | --- |
| 7.23 ± 4.88 µM | 27% | – | – | 32% | 5 ± 1.16 µM | COc1ccc(OC)c(-n2nnc(C(=O)Nc3cc(C(C)(C)C)ccc3OCCOCCOCCOCCN3C(=O)CCC(N4Cc5c(N)cccc5C4=O)C3=O)c2C)c1 (centres unmarked) [Compound N2, N-(2-(2-(2-(2-(2-(3-(4-amino-1-oxoisoindolin-2-yl)-2,6-dioxopiperidin-1-yl)ethoxy)ethoxy)ethoxy)ethoxy)-5-(tert-butyl)phenyl)-1-(2,5-dimethoxyphenyl)-5-methyl-1H-1,2,3-triazole-4-carboxamide] |
| 0.43 ± 0.027 µM | 48% | 36% | 1.12 ± 0.3 µM | 83% | 0.52 ± 0.095 µM | COc1ccc(OC)c(-n2nnc(C(=O)Nc3cc(OCCOCCOCCOCCOCCOCCN4C(=O)CCC(N5C(=O)c6cccc(N)c6C5=O)C4=O)cc(C(C)(C)C)c3)c2C)c1 (centres unmarked) [Compound N7, N-(3-((17-(3-(4-amino-1,3-dioxoisoindolin-2-yl)-2,6-dioxopiperidin-1-yl)-3,6,9,12,15-pentaoxaheptadecyl)oxy)-5-(tert-butyl)phenyl)-1-(2,5-dimethoxyphenyl)-5-methyl-1H-1,2,3-triazole-4-carboxamide] |
| – | – | – | – | 11% | 6.51 ± 0.71 µM | COc1ccc(OC)c(-n2nnc(C(=O)Nc3cc(OCCCCCCCCN4C(=O)CCC(N5Cc6c(N)cccc6C5=O)C4=O)cc(C(C)(C)C)c3)c2C)c1 (centres unmarked) [Compound N6, N-(3-((8-(3-(4-amino-1-oxoisoindolin-2-yl)-2,6-dioxopiperidin-1-yl)octyl)oxy)-5-(tert-butyl)phenyl)-1-(2,5-dimethoxyphenyl)-5-methyl-1H-1,2,3-triazole-4-carboxamide] |
